Measured values: PubChem BioAssay (NCI)
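These data come from cells grown in 96-well plates and exposed to compound for 48 hours at five concentrations. TGI marks complete inhibition of growth.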

Assays:
Test in all cases: NCI anticancer screen, dose series, 48 h
UO-31 renal = system: UO-31 renal
M14 melanoma = system: M14 melanoma
HT29 colon = system: HT29 colon
CAKI-1 renal = system: CAKI-1 renal
NCI-H23 lung = system: NCI-H23 lung
SK-OV-3 ovarian = system: SK-OV-3 ovarian
SW-620 colon = system: SW-620 colon
HL-60(TB) leukemia = system: HL-60(TB) leukemia
A549 NSCLC = system: A549 NSCLC
MALME-3M melanoma = system: MALME-3M melanoma
OVCAR-5 ovarian = system: OVCAR-5 ovarian
SK-MEL-28 melanoma = system: SK-MEL-28 melanoma
SF-268 CNS = system: SF-268 CNS
SN12C renal = system: SN12C renal
RPMI-8226 leukemia = system: RPMI-8226 leukemia
SR leukemia = system: SR leukemia
UACC-257 melanoma = system: UACC-257 melanoma
SK-MEL-2 melanoma = system: SK-MEL-2 melanoma
SF-295 CNS = system: SF-295 CNS
K-562 leukemia = system: K-562 leukemia
HCC-2998 colon = system: HCC-2998 colon
NCI-H226 lung = system: NCI-H226 lung
OVCAR-4 ovarian = system: OVCAR-4 ovarian
TK-10 renal = system: TK-10 renal
UACC-62 melanoma = system: UACC-62 melanoma
RXF 393 renal = system: RXF 393 renal
OVCAR-3 ovarian = system: OVCAR-3 ovarian
NCI-H522 lung = system: NCI-H522 lung
NCI-H460 lung = system: NCI-H460 lung
SNB-19 CNS = system: SNB-19 CNS
ACHN renal = system: ACHN renal
COLO 205 colon = system: COLO 205 colon
M19-MEL melanoma = system: M19-MEL melanoma
EKVX NSCLC = system: EKVX NSCLC
CCRF-CEM leukemia = system: CCRF-CEM leukemia
DLD-1 colon = system: DLD-1 colon
786-0 renal = system: 786-0 renal
HCT-15 colon = system: HCT-15 colon
LXFL 529 NSCLC = system: LXFL 529 NSCLC
HCT-116 colon = system: HCT-116 colon
XF 498 CNS = system: XF 498 CNS
SNB-75 CNS = system: SNB-75 CNS
HOP-18 NSCLC = system: HOP-18 NSCLC
DMS 114 small cell lung = system: DMS 114 small cell lung
HOP-62 NSCLC = system: HOP-62 NSCLC
IGROV1 ovarian = system: IGROV1 ovarian
KM12 colon = system: KM12 colon
MOLT-4 leukemia = system: MOLT-4 leukemia
LOX IMVI melanoma = system: LOX IMVI melanoma
KM20L2 colon = system: KM20L2 colon
DMS 273 small cell lung = system: DMS 273 small cell lung
SNB-78 CNS = system: SNB-78 CNS
OVCAR-8 ovarian = system: OVCAR-8 ovarian
A498 renal = system: A498 renal
HOP-92 NSCLC = system: HOP-92 NSCLC
U251 CNS = system: U251 CNS
SK-MEL-5 melanoma = system: SK-MEL-5 melanoma

`CCOC(=O)C1C(c2ccc(Br)cc2)N(Cc2ccccc2)C(c2ccc(Br)cc2)C(C(=O)OC)S1(=O)=O` (stereo not drawn) gave a TGI (UO-31 renal) greater than 100 µM, a TGI (M14 melanoma) greater than 100 µM and a TGI (HT29 colon) greater than 100 µM. The TGI (CAKI-1 renal) was greater than 100 µM, the TGI (NCI-H23 lung) was greater than 100 µM and the TGI (SK-OV-3 ovarian) was greater than 100 µM. The TGI (SW-620 colon) was greater than 100 µM, the TGI (HL-60(TB) leukemia) was greater than 100 µM and the TGI (A549 NSCLC) was greater than 100 µM. For the same compound, the TGI (MALME-3M melanoma) was greater than 100 µM, the TGI (OVCAR-5 ovarian) was greater than 100 µM and the TGI (SK-MEL-28 melanoma) was greater than 100 µM. It also gave a TGI (SF-268 CNS) greater than 100 µM, a TGI (SN12C renal) greater than 100 µM and a TGI (RPMI-8226 leukemia) greater than 100 µM. For the same compound, the TGI (SR leukemia) was greater than 100 µM, the TGI (UACC-257 melanoma) was greater than 100 µM and the TGI (SK-MEL-2 melanoma) was greater than 100 µM. The TGI (SF-295 CNS) was greater than 100 µM, the TGI (K-562 leukemia) was greater than 100 µM and the TGI (HCC-2998 colon) was greater than 100 µM. The TGI (NCI-H226 lung) was greater than 100 µM, the TGI (OVCAR-4 ovarian) was greater than 100 µM and the TGI (TK-10 renal) was greater than 100 µM. The TGI (UACC-62 melanoma) was greater than 100 µM, the TGI (RXF 393 renal) was greater than 100 µM and the TGI (OVCAR-3 ovarian) was greater than 100 µM. The TGI (NCI-H522 lung) was greater than 100 µM, the TGI (NCI-H460 lung) was greater than 100 µM and the TGI (SNB-19 CNS) was greater than 100 µM. It also gave a TGI (ACHN renal) greater than 100 µM, a TGI (COLO 205 colon) greater than 100 µM and a TGI (M19-MEL melanoma) greater than 100 µM. The TGI (EKVX NSCLC) was greater than 100 µM, the TGI (CCRF-CEM leukemia) was greater than 100 µM and the TGI (DLD-1 colon) was greater than 100 µM. It also gave a TGI (786-0 renal) greater than 100 µM, a TGI (HCT-15 colon) greater than 100 µM and a TGI (LXFL 529 NSCLC) greater than 100 µM. It also gave a TGI (HCT-116 colon) greater than 100 µM, a TGI (XF 498 CNS) greater than 100 µM and a TGI (SNB-75 CNS) of 57.3 µM. The TGI (HOP-18 NSCLC) was 72.9 µM, the TGI (DMS 114 small cell lung) was greater than 100 µM and the TGI (HOP-62 NSCLC) was greater than 100 µM. For the same compound, the TGI (IGROV1 ovarian) was greater than 100 µM, the TGI (KM12 colon) was greater than 100 µM and the TGI (MOLT-4 leukemia) was greater than 100 µM. The TGI (LOX IMVI melanoma) was greater than 100 µM, the TGI (KM20L2 colon) was greater than 100 µM and the TGI (DMS 273 small cell lung) was greater than 100 µM. It also gave a TGI (SNB-78 CNS) greater than 100 µM and a TGI (OVCAR-8 ovarian) of 84.6 µM.

`O=C1C=CC2(O)OCC3C=C4O[C@@H]5OC6(CCCCC6)O[C@@H]5C4[C@@H]2[C@@H]13` (stereo partly drawn) was tested, and the TGI (UO-31 renal) was 37.3 µM, the TGI (M14 melanoma) was 43.8 µM and the TGI (HT29 colon) was 50.9 µM. It also gave a TGI (CAKI-1 renal) of 48.9 µM, a TGI (NCI-H23 lung) of 67.3 µM and a TGI (SK-OV-3 ovarian) greater than 100 µM. For the same compound, the TGI (SW-620 colon) was 71.4 µM, the TGI (HL-60(TB) leukemia) was 42.1 µM and the TGI (A549 NSCLC) was greater than 100 µM. It also gave a TGI (MALME-3M melanoma) of 62.1 µM, a TGI (OVCAR-5 ovarian) greater than 100 µM and a TGI (SK-MEL-28 melanoma) of 44.7 µM. For the same compound, the TGI (A498 renal) was greater than 100 µM, the TGI (SF-268 CNS) was greater than 100 µM and the TGI (SN12C renal) was greater than 100 µM. It also gave a TGI (RPMI-8226 leukemia) of 58.9 µM, a TGI (UACC-257 melanoma) of 35 µM and a TGI (SK-MEL-2 melanoma) greater than 100 µM. The TGI (SF-295 CNS) was greater than 100 µM, the TGI (K-562 leukemia) was 44.8 µM and the TGI (HCC-2998 colon) was greater than 100 µM. It also gave a TGI (NCI-H226 lung) greater than 100 µM, a TGI (OVCAR-4 ovarian) of 59.9 µM and a TGI (TK-10 renal) of 48.6 µM. The TGI (UACC-62 melanoma) was greater than 100 µM, the TGI (OVCAR-3 ovarian) was 52.2 µM and the TGI (HOP-92 NSCLC) was 33.4 µM. For the same compound, the TGI (NCI-H522 lung) was 27.9 µM, the TGI (NCI-H460 lung) was greater than 100 µM and the TGI (SNB-19 CNS) was greater than 100 µM. The TGI (ACHN renal) was 88.4 µM, the TGI (COLO 205 colon) was 30.9 µM and the TGI (M19-MEL melanoma) was 54.9 µM. For the same compound, the TGI (EKVX NSCLC) was 78.7 µM, the TGI (CCRF-CEM leukemia) was 45.8 µM and the TGI (DLD-1 colon) was 50.6 µM. It also gave a TGI (786-0 renal) of 41.2 µM, a TGI (HCT-15 colon) of 58.7 µM and a TGI (LXFL 529 NSCLC) of 29.7 µM. It also gave a TGI (HCT-116 colon) of 32.1 µM, a TGI (XF 498 CNS) of 72.6 µM and a TGI (SNB-75 CNS) greater than 100 µM. The TGI (HOP-18 NSCLC) was greater than 100 µM, the TGI (DMS 114 small cell lung) was 69.2 µM and the TGI (HOP-62 NSCLC) was greater than 100 µM. The TGI (U251 CNS) was greater than 100 µM, the TGI (IGROV1 ovarian) was greater than 100 µM and the TGI (KM12 colon) was greater than 100 µM. It also gave a TGI (MOLT-4 leukemia) of 70.5 µM, a TGI (LOX IMVI melanoma) greater than 100 µM and a TGI (SK-MEL-5 melanoma) greater than 100 µM. The TGI (KM20L2 colon) was greater than 100 µM, the TGI (DMS 273 small cell lung) was greater than 100 µM and the TGI (SNB-78 CNS) was 83.3 µM. It also gave a TGI (OVCAR-8 ovarian) of 77.2 µM.
